Laboratory results from US20210085688A1, “PHARMACEUTICAL COMBINATIONS OF EGFR INHIBITORS AND METHODS OF USE THEREOF” (DANA-FARBER CANCER INSTITUTE, INC., priority 2018, published 2021).
Like-named read-outs stand apart in the source and are kept apart here.

Target: EGFR T790M/L858R Ba/F3 cell line (Homo sapiens, UniProt P00533, T790M/L858R, cells depend on it)
Experiment: Ba/F3 cell proliferation (MTS assay), EGFR T790M/L858R
Assay type: cell-based, murine
Protocol: The EGFR mutant L858R, Del E746_A750, L858R/T790M, DelE746_A750/T790M, L858R/T790M/C797S and Del/T790M/C797S Ba/F3 cells were previously described (Zhou et al., Nature 462, (2009), 1070-1074). All cell lines were maintained in RPMI 1640 (Cellgro; Mediatech Inc., Herndon, Calif.) supplemented with 10% FBS 100 units/mL penicillin, 100 units/mL streptomycin, and 2 mM glutamine. L858R cells were maintained in ACL-4 media (Invitrogen, Carlsbad, Calif.) supplemented with 5% FBS, 100 units/mL penicillin, 100 units/mL streptomycin, and 2 mM glutamine. The EGFR I941R mutation was introduced via site directed mutagenesis using the Quick Change Site-Directed Mutagenesis kit (Stratagene; La Jolla, Calif.) according to the manufacturer's instructions. All constructs were confirmed by DNA sequencing. The constructs were shuttled into the retroviral vector JP1540 using the BD Creator™ System (BD Biosciences). Ba/F3 cells were infected with retrovirus and according to standard protocols, as described previously (Zhou 2009). Stable clones were obtained by selection in puromycin (2 μg/ml).
Growth and inhibition of growth was assessed by MTS assay and was performed according to previously established methods (Zhou 2009). The MTS assay is a colorimetric method for determining the number of viable cells that is based on the bioreduction of MTS by cells to a formazan product that is soluble in cell culture medium and can be detected spectrophotometrically. […] All experimental points were set up in six wells and all experiments were repeated at least three times. […] The curves were fitted using a non-linear regression model with a sigmoidal dose response.

[1] = absence of cetuximab, read-out: Ba/F3 cellular activity (EC50) T790M/L858R
[2] = read-out: Ba/F3 cellular activity (EC50) T790M/L858R + Cetuximab, presence of 1 μg/mL cetuximab

Chain of EGFR T790M/L858R Ba/F3 cell line (P00533 whole entry T790M/L858R): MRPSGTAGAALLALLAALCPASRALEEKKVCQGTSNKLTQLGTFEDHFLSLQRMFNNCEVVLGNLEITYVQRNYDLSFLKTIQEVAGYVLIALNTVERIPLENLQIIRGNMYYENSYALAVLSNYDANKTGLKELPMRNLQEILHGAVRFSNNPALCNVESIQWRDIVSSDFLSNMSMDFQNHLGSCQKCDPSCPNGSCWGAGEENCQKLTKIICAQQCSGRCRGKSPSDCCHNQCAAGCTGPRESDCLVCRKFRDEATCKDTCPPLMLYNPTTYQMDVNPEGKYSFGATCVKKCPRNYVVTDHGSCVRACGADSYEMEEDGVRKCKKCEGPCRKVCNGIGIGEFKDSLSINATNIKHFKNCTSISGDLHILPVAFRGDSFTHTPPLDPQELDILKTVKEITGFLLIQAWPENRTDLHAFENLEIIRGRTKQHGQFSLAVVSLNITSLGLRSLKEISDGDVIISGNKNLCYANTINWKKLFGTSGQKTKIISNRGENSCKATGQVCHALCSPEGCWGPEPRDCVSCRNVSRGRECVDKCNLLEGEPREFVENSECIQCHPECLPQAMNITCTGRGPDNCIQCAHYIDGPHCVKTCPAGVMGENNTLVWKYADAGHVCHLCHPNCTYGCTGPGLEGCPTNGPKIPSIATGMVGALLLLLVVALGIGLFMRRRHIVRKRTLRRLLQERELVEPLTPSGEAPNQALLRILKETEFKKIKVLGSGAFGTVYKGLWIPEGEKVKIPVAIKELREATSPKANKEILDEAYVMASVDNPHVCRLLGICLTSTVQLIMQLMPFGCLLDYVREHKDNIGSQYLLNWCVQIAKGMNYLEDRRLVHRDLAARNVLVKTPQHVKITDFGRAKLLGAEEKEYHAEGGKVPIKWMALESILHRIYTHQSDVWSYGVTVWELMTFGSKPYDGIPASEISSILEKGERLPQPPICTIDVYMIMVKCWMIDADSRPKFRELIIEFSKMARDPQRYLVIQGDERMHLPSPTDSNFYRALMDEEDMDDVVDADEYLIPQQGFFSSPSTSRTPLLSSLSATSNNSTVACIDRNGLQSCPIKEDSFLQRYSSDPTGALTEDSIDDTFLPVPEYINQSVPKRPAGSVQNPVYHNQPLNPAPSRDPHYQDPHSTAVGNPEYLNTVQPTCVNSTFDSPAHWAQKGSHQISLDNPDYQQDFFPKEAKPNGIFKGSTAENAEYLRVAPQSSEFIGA

## C=CC(=O)Nc1ccc2c(c1)N(Cc1ccccc1)C(=O)c1cc(-c3ccc(N4CCNCC4)cc3)ccc1N2 [Compound I-3, N-(10-Benzyl-11-oxo-2-(4-(piperazin-1-yl)phenyl)-10,11-dihydro-5H-dibenzo[b,e][1,4]diazepin-8-yl)acrylamide]
[1]
  EC50: ≥ 750 nM
[2]
  EC50: ≥ 750 nM

## O=C1c2cc(Br)ccc2Nc2ccc(F)cc2N1Cc1ccccc1 [I-a, 10-Benzyl-2-bromo-8-fluoro-5,10-dihydro-11H-dibenzo[b,e][1,4]diazepin-11-one]
[1]
  EC50: ≥ 750 nM
[2]
  EC50: 250 to 500 nM

## O=C(CCl)Nc1ccc2c(c1)N(Cc1ccccc1)C(=O)c1cc(-c3ccc4[nH]ccc4c3)ccc1N2 [Compound I-2]
[1]
  EC50: < 250 nM
[2]
  EC50: < 250 nM

## C=CC(=O)Nc1ccc2c(c1)N(Cc1ccccc1)C(=O)c1cc(-c3ccc4[nH]ccc4c3)ccc1N2 [Compound I-1]
[1]
  EC50: ≥ 750 nM
[2]
  EC50: 500 to 750 nM
